From ChEMBL document CHEMBL1201862, “PubChem BioAssay data set” (2004)
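Interpolation was linear, between the two tested concentrations surrounding the appropriate level; five concentrations were tested over 48 hours in 96-well plates. GI50: concentration for 50% inhibition of growth.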 Active and inactive are the calls of the source. Cut-off read from the data, not from the text of the source: active = GI50 up to about 1.1 µM and inactive = higher.

How the values were obtained:
Test in all cases: DTP human tumour cell line panel, 48 h
SF-268 = tested on: SF-268
ACHN = tested on: ACHN
COLO 205 = tested on: COLO 205
MCF7 = tested on: MCF7
OVCAR-8 = tested on: OVCAR-8
HT-29 = tested on: HT-29
UACC-62 = tested on: UACC-62
OVCAR-4 = tested on: OVCAR-4
EKVX = tested on: EKVX
K562 = tested on: K562
U-251 = tested on: U-251
HCT-116 = tested on: HCT-116
MDA-N = tested on: MDA-N
SF-295 = tested on: SF-295
NCI-H460 = tested on: NCI-H460
CCRF-CEM = tested on: CCRF-CEM
UACC-257 = tested on: UACC-257
SNB-19 = tested on: SNB-19
TK-10 = tested on: TK-10
A498 = tested on: A498

Compound	GI50 (SF-268)	GI50 (ACHN)	GI50 (COLO 205)	GI50 (MCF7)	GI50 (OVCAR-8)	GI50 (HT-29)	GI50 (UACC-62)	GI50 (OVCAR-4)	GI50 (EKVX)	GI50 (K562)	GI50 (U-251)	GI50 (HCT-116)	GI50 (MDA-N)	GI50 (SF-295)	GI50 (NCI-H460)	GI50 (CCRF-CEM)	GI50 (UACC-257)	GI50 (SNB-19)	GI50 (TK-10)	GI50 (A498)
CCOC(=O)C(NC(=O)CC)(Nc1ccc(S(=O)(=O)Nc2onc(C)c2C)cc1)C(F)(F)F (stereo not given)	> 100 µM (inactive)	> 100 µM (inactive)	> 100 µM (inactive)	> 100 µM (inactive)	> 100 µM (inactive)	> 100 µM (inactive)	> 100 µM (inactive)	> 100 µM (inactive)	> 100 µM (inactive)	> 100 µM (inactive)	> 100 µM (inactive)	> 100 µM (inactive)	> 100 µM (inactive)	> 100 µM (inactive)	> 100 µM (inactive)	> 100 µM (inactive)	> 100 µM (inactive)	> 100 µM (inactive)		
CC(C)OCC(O)COc1ccc2ccc(=O)oc2c1 (stereo not given)	> 100 µM (inactive)	> 100 µM (inactive)	> 100 µM (inactive)	> 100 µM (inactive)	> 100 µM (inactive)	> 100 µM (inactive)	> 100 µM (inactive)	> 100 µM (inactive)	> 100 µM (inactive)	> 100 µM (inactive)	> 100 µM (inactive)	> 100 µM (inactive)	> 100 µM (inactive)	> 100 µM (inactive)	> 100 µM (inactive)	> 100 µM (inactive)	> 100 µM (inactive)	> 100 µM (inactive)	> 100 µM (inactive)	
Cc1ccc(NC(=O)/C(C#N)=C/c2ccccc2)c(C)c1	> 100 µM (inactive)	> 100 µM (inactive)	> 100 µM (inactive)		> 100 µM (inactive)	> 100 µM (inactive)	> 100 µM (inactive)	> 100 µM (inactive)	> 100 µM (inactive)	> 100 µM (inactive)	> 100 µM (inactive)	> 100 µM (inactive)		> 100 µM (inactive)	> 100 µM (inactive)	> 100 µM (inactive)	> 100 µM (inactive)	> 100 µM (inactive)	> 100 µM (inactive)	> 100 µM (inactive)
CCOC(=O)c1ccc2c(c1)nc1n2C(c2c(F)cccc2F)SC1 (stereo not given)	32.8 µM (inactive)	18.3 µM (inactive)	14.2 µM (inactive)	19.9 µM (inactive)	21.6 µM (inactive)	19 µM (inactive)	25.4 µM (inactive)	46.6 µM (inactive)		29.1 µM (inactive)	55.6 µM (inactive)	15.6 µM (inactive)		21.5 µM (inactive)	26.3 µM (inactive)	33.5 µM (inactive)	38 µM (inactive)	12.2 µM (inactive)	80.9 µM (inactive)	> 100 µM (inactive)
C/C(=N\NC(=S)N1CCN(C)CC1)c1nc2cccnc2[nH]1	> 100 µM (inactive)	> 100 µM (inactive)	> 100 µM (inactive)	20.4 µM (inactive)	> 100 µM (inactive)	> 100 µM (inactive)	> 100 µM (inactive)	> 100 µM (inactive)	> 100 µM (inactive)	92.3 µM (inactive)	> 100 µM (inactive)			> 100 µM (inactive)	> 100 µM (inactive)	> 100 µM (inactive)	> 100 µM (inactive)	> 100 µM (inactive)	54.7 µM (inactive)	> 100 µM (inactive)
CC[C@@]1(O)C[C@H](OC2CC(N(C)C)C(OC3CC(O)C(OC4CCC(=O)C(C)O4)C(C)O3)C(C)O2)c2c(cc3c(c2O)C(=O)c2c(O)ccc(O)c2C3=O)[C@H]1C(=O)OC (stereo not given in full)	0.000132 µM (active)	5.36e-05 µM (active)	7.55e-05 µM (active)		0.00233 µM (active)	4.83e-05 µM (active)	0.00341 µM (active)	1.06e-05 µM (active)	0.00492 µM (active)	8.83e-05 µM (active)	6.35e-05 µM (active)	2.32e-05 µM (active)	0.000427 µM (active)	6.81e-05 µM (active)	2.33e-05 µM (active)	8.38e-05 µM (active)	0.00202 µM (active)	5.51e-05 µM (active)	0.00152 µM (active)	
FC1(F)[Se]C2C3CCC(C3)C2C1(F)F (stereo not given)	> 100 µM (inactive)	> 100 µM (inactive)	> 100 µM (inactive)	> 100 µM (inactive)	> 100 µM (inactive)		> 100 µM (inactive)	> 100 µM (inactive)	> 100 µM (inactive)		> 100 µM (inactive)	56.2 µM (inactive)	> 100 µM (inactive)	35.2 µM (inactive)	> 100 µM (inactive)			> 100 µM (inactive)	> 100 µM (inactive)	> 100 µM (inactive)
